Test results reported in article PMC10487436, “Towards Anticancer and Antibacterial Agents: Design and Synthesis of 1,2,3-Triazol-quinobenzothiazine Derivatives” (International Journal of Molecular Sciences, 2023).
In brackets after ≈: the same amount, converted by molar mass.

What was measured:
[1] = test system: Mycobacterium marinum CAMP 5644; test: MBC, agar aliquot subculture method, MM; type: cell-based; settings: CAMP5644
Experimental: (§1) For the above-mentioned strains/isolates, the agar aliquot subculture method was used as a test for bactericidal agents. After the MIC value determination, the inoculum was transferred to CaMH (Oxoid) for staphylococci, BHI (Oxoid) for enterococci, and Middlebrook 7H9 (Difco) for mycobacteria medium using a multipoint inoculator. As indicated above, the plates were incubated on a thermostat at 37 °C for the appropriate time for each micro-organism. The lowest concentration of test compound at which ≤5 colonies were obtained was then evaluated as MBC, corresponding to a 99.9% decrease in CFU relative to the original inoculum.

[2] = test system: methicillin-resistant S. aureus SA 3202; test: MBC, agar aliquot subculture method, MRSA1; type: cell-based; settings: Staphylococcus aureus
Experimental: as §1

[3] = test system: SNB-19 (human glioblastoma); test: WST-1 proliferation assay, SNB-19; type: cell-based; settings: Homo sapiens, SNB-19, 72 h exposure
Experimental: (§2) Compounds were evaluated for their antiproliferative activity using three cultured cell lines: A549 (human lung carcinoma, ATCC, Manassas, VA, USA), SNB-19 (human glioblastoma, DSMZ, German Collection of Microorganisms and Cell Cultures), T-47D (human breast cancer, ATCC, Manassas, VA, USA), and NHDF (normal human dermal fibroblasts, ATCC, Manassas, VA, USA). The cultured cells were kept at 37 °C and 5% CO2. The cells were seeded (1 × 10^4 cells/well/100 μL DMEM supplemented with 10% FCS, streptomycin, and penicillin) using 96-well plates (corning). Cells were counted in a hemocytometer (Burker chamber) using a phase contrast Olympus IX50 microscope equipped with a Sony SSC-DC58 AP camera and an Olympus DP10 digital camera.
(§3) The antiproliferative effect of the compounds exerted on cancer and normal cells was determined using the Cell Proliferation Reagent WST-1 assay (Roche Molecular Biochemicals, Mannheim, Germany). This assay is based on a colorimetric method using the enzymatic ability of viable cells to cause the bright, red-colored stable tetrazolium monosodium salt [2-(4-iodophenyl)-3-(4-nitrophenyl)-5-(2,4-disulfophenyl)–2H-tetra-zolium] to transform into the dark, red-colored soluble formazan. […] An increase in the amount of formazan dye formed correlated with the number of metabolically active cells in the culture. The formazan dye produced by metabolically active cells was quantified by absorbance readings at appropriate wavelengths. The examined cells were exposed to the tested compounds (1 mM DMSO stock) for 72 h at various concentrations (0.1–100 μM). The control was performed in order to eliminate the DMSO effect at the concentration used. Cell cultures were incubated with WST-1 (10 μL) for 1 h. The absorbance of the samples was measured against a background control at 450 nm using a microplate reader with a reference wavelength at 600 nm. The obtained results are expressed as the means of at least two independent experiments performed in triplicate. The antiproliferative activity of the tested compounds was compared to that of cisplatinum. The values of IC50 (a concentration of a compound that is required for 50% inhibition) were calculated from the dose-response relationship with respect to control. The results were reported as the mean (±std) of three separate experiments.

[4] = test system: Mycobacterium smegmatis ATCC 700084; test: MBC, agar aliquot subculture method, MS; type: cell-based; settings: Mycolicibacterium smegmatis, ATCC700084
Experimental: as §1

[5] = test system: vancomycin-resistant E. faecalis VRE 342B; test: MIC, microtitration broth method, VRE1; type: cell-based; settings: Enterococcus faecalis, 24 h at 37 °C
Experimental: (§4) In vitro antibacterial activity of the synthesized compounds was evaluated against representatives of multidrug-resistant bacteria, three clinical isolates of methicillin-resistant S. aureus: clinical isolates of animal origin, MRSA 63718 (Department of Infectious Diseases and Microbiology, Faculty of Veterinary Medicine, University of Veterinary Sciences Brno, Czech Republic), carrying the mecA gene; and MRSA SA 630 and MRSA SA 3202 [52] (National Institute of Public Health, Prague, Czech Republic), both of human origin. […] Vancomycin- and methicillin-susceptible S. aureus ATCC 29213 and vancomycin-susceptible Enterococcus faecalis ATCC 29212, obtained from the American Type Culture Collection, were used as the reference and quality control strains. Three vanA gene-carrying vancomycin-resistant isolates of E. faecalis (VRE 342B, VRE 368, VRE 725B) were provided by Oravcova et al..
(§5) The minimum inhibitory concentrations (MICs) were evaluated by the microtitration broth method according to the CLSI, with some modifications. The compounds were dissolved in DMSO (Sigma, St. Louis, MO, USA) to obtain a concentration of […] and diluted in a microtitration plate in an appropriate medium, i.e., Cation Adjusted Mueller–Hinton Broth (CaMH, Oxoid, Basingstoke, UK) for staphylococci, and Brain Heart Infusion Broth (BHI, Oxoid) for enterococci, to reach the final concentration of 256–0.125 µg/mL. Microtiter plates were inoculated with test micro-organisms so that the final concentration of bacterial cells was 10^5. […] A drug-free control and a sterility control were included. The plates were incubated for 24 h at 37 °C for staphylococci and enterococci. […] The experiments were repeated three times.

[6] = test system: methicillin-resistant S. aureus SA 630; test: MBC, agar aliquot subculture method, MRSA2; type: cell-based; settings: Staphylococcus aureus
Experimental: as §1

[7] = test system: methicillin-resistant S. aureus 63718; test: MBC, agar aliquot subculture method, MRSA3; type: cell-based; settings: Staphylococcus aureus
Experimental: as §1

[8] = test system: Enterococcus faecalis ATCC 29213; test: MIC, microtitration broth method, EF; type: cell-based; settings: ATCC29213, 24 h at 37 °C
[9] = test system: NHDF (normal human dermal fibroblasts); test: WST-1 proliferation assay, NHDF; type: cell-based; settings: Homo sapiens, NHDF, normal cells, 72 h exposure
Experimental: as §2, §3

[10] = test system: Mycobacterium smegmatis ATCC 700084; test: MIC, broth dilution micro-method, MS; type: cell-based; settings: Mycolicibacterium smegmatis, ATCC700084, 72 h; 3 days at 37 °C
[11] = test system: methicillin-resistant S. aureus 63718; test: MIC, microtitration broth method, MRSA3; type: cell-based; settings: Staphylococcus aureus; 24 h at 37 °C
Experimental: as §4, §5

[12] = test system: T-47D (human breast cancer); test: WST-1 proliferation assay, T47D; type: cell-based; settings: Homo sapiens, T47D, 72 h exposure
Experimental: as §2, §3

[13] = test system: Staphylococcus aureus ATCC 29213; test: MBC, agar aliquot subculture method, SA; type: cell-based; settings: ATCC29213
Experimental: as §1

[14] = test system: vancomycin-resistant E. faecalis VRE 725B; test: MIC, microtitration broth method, VRE3; type: cell-based; settings: Enterococcus faecalis, 24 h at 37 °C
Experimental: as §4, §5

[15] = test system: vancomycin-resistant E. faecalis VRE 368; test: MBC, agar aliquot subculture method, VRE2; type: cell-based; settings: Enterococcus faecalis
Experimental: as §1

[16] = test system: methicillin-resistant S. aureus SA 3202; test: MIC, microtitration broth method, MRSA1; type: cell-based; settings: Staphylococcus aureus; 24 h at 37 °C
Experimental: as §4, §5

[17] = test system: Staphylococcus aureus ATCC 29213; test: MIC, microtitration broth method, SA; type: cell-based; settings: ATCC29213, 24 h at 37 °C
Experimental: as §4, §5

[18] = test system: Mycobacterium marinum CAMP 5644; test: MIC, broth dilution micro-method, MM; type: cell-based; settings: CAMP5644, 504 h, 21 days at 28 °C
[19] = test system: vancomycin-resistant E. faecalis VRE 368; test: MIC, microtitration broth method, VRE2; type: cell-based; settings: Enterococcus faecalis, 24 h at 37 °C
Experimental: as §4, §5

[20] = test system: Mycobacterium smegmatis ATCC 700084; settings: 3 days; for Conc.: lowest multiple of MBC with at least 70% inhibition of respiratory activity / Conc.: lowest multiple of MIC with at least 70% inhibition of respiratory activity: MTT; for viability of M. smegmatis at MIC value: Mycobacterium smegmatis; for M. smegmatis Respiration Inhibition: at the concentration (lowest multiple of MIC with at least 70% inhibition)
[21] = test system: methicillin-resistant S. aureus SA 630; test: MIC, microtitration broth method, MRSA2; type: cell-based; settings: Staphylococcus aureus; 24 h at 37 °C
Experimental: as §4, §5

[22] = test system: A549 (human lung carcinoma); test: WST-1 proliferation assay, A549; type: cell-based; settings: Homo sapiens, A549, 72 h exposure
Experimental: as §2, §3

[23] = test system: methicillin-resistant S. aureus 63718; set-up: method as in PMID 20386717; settings: MRSA 63718, characterisation of the isolate; cited from earlier work
[24] = test system: human cancer cell lines (A549, SNB-19, and T-47D); test: WST-1 proliferation assay, cancer cell line panel; type: cell-based; settings: SNB-19, A549, T47D, read-out: IC50 range over the tested cancer cell lines
Experimental: as §2
The antiproliferative effect of the compounds exerted on cancer and normal cells was determined using the Cell Proliferation Reagent WST-1 assay (Roche Molecular Biochemicals, Mannheim, Germany). […] The formazan dye produced by metabolically active cells was quantified by absorbance readings at appropriate wavelengths. […] The absorbance of the samples was measured against a background control at 450 nm using a microplate reader with a reference wavelength at 600 nm. The obtained results are expressed as the means of at least two independent experiments performed in triplicate. […]

Enterococcus faecalis = test: MBC, agar aliquot subculture method, EF; type: cell-based; settings: ATCC29213
Experimental: as §1

Compound | MBC [1] | MBC [2] | IC50 [3] | MBC [4] | MIC [5] | MBC [6] | MBC [7] | MIC [8] | IC50 [9] | MIC [10] | MIC [11] | IC50 [12] | MBC [13] | MIC [14] | MIC [16] | MIC [17] | MIC [18] | MIC [19] | MIC [21] | IC50 [22] | also measured
C[n+]1cc2c(c3ccccc31)Nc1ccc(OCc3cn(-c4ccc(Cl)cc4)nn3)cc1S2 [2m, 5-Methyl-9-(1-(4-chlorophenyl)-1H-1,2,3-triazol-4-yl)methoxy-12H-quino [3,4-b][1,4]benzothiazinium chloride] | 16.3 µM | 131 µM | 23.4 ± 1.5 µM | 8.19 µM | > 524 µM | 131 µM | 32.7 µM | 65.5 µM | > 100 µM | 8.19 µM | 32.7 µM | 8.9 ± 0.9 µM | 65.5 µM | 524 µM | 131 µM | 65.5 µM | 16.3 µM | 524 µM | 131 µM | 16.8 ± 1.2 µM | MBC [15]: 524 µM; Conc.: lowest multiple of MBC with at least 70% inhibition of respiratory activity [20]: 1× MIC (1× MBC); Conc.: lowest multiple of MIC with at least 70% inhibition of respiratory activity [20]: 1× MIC (1× MBC); viability of M. smegmatis at MIC value [20]: less than 70%; M. smegmatis Respiration Inhibition [20]: 87.1%
CN[C@H](CC(C)C)C(=O)N[C@H]1C(=O)N[C@@H](CC(N)=O)C(=O)N[C@H]2C(=O)N[C@H]3C(=O)N[C@H](C(=O)N[C@H](C(=O)O)c4cc(O)cc(O)c4-c4cc3ccc4O)[C@H](O)c3ccc(c(Cl)c3)Oc3cc2cc(c3O[C@@H]2O[C@H](CO)[C@@H](O)[C@H](O)[C@H]2O[C@H]2C[C@](C)(N)[C@H](O)[C@H](C)O2)Oc2ccc(cc2Cl)[C@H]1O [vancomycin] |  |  |  |  |  |  |  |  |  |  |  |  |  |  |  |  |  |  |  |  | MIC of vancomycin [23]: 2 µg/mL
C=CCn1cc(COc2ccc3c(c2)Sc2c[n+](C)c4ccccc4c2N3)nn1 [2a, 5-Methyl-9-(1-allyl-1H-1,2,3-triazol-4-yl)methoxy-12H-quino [3,4-b][1,4]benzothiazinium chloride] | 65.5 µM |  | 0.23 ± 0.06 µM | 32.7 µM | 524 µM | 262 µM | 131 µM | 262 µM | 47.8 ± 3.5 µM | 32.7 µM | 131 µM | 2.1 ± 0.5 µM | 131 µM | 262 µM | 262 µM | 131 µM | 65.5 µM | 262 µM | 262 µM | 0.45 ± 0.08 µM | IC50 [24]: 0.23 to 2.1 µM
CC1(C)S[C@@H]2[C@H](NC(=O)[C@H](N)c3ccccc3)C(=O)N2[C@H]1C(=O)O [AMP, ampicillin, reference compound] |  | > 45.8 µM |  |  |  | > 45.8 µM | 45.8 µM (≈ 16 µg/mL) | 2.81 µM (≈ 0.982 µg/mL) |  |  | 45.8 µM (≈ 16 µg/mL) |  | 5.72 µM (≈ 2 µg/mL) |  | > 45.8 µM | 5.72 µM (≈ 2 µg/mL) |  |  | > 45.8 µM |  | MBC (Enterococcus faecalis): 2.81 µM (≈ 0.982 µg/mL)
C[n+]1cc2c(c3ccccc31)Nc1cc(OCc3cn(Cc4ccc([N+](=O)[O-])cc4)nn3)ccc1S2 [2h, 5-Methyl-10-[1-(4-nitrobenzyl)-1H-1,2,3-triazol-4-yl]methoxy-12H-quino [3,4-b][1,4]benzothiazinium chloride] | 32.7 µM | 262 µM | 9.3 ± 0.5 µM | 16.3 µM | > 524 µM | 262 µM | 131 µM | > 524 µM | > 100 µM | 16.3 µM | 131 µM | 6.3 ± 0.3 µM | 131 µM | > 524 µM | 262 µM | 131 µM | 32.7 µM | > 524 µM | 262 µM | 14.6 ± 0.6 µM | Conc.: lowest multiple of MBC with at least 70% inhibition of respiratory activity [20]: 1× MIC (1× MBC); Conc.: lowest multiple of MIC with at least 70% inhibition of respiratory activity [20]: 1× MIC (1× MBC); viability of M. smegmatis at MIC value [20]: less than 70%; M. smegmatis Respiration Inhibition [20]: 81.4%
